What is called inhibition is the relative decrease from the control value, in per cent.

Assay [1] addresses dopaminergic receptors D3 (Homo sapiens, UniProt P35462). Kind of assay: Radioligand binding assay, dopaminergic D3 receptors. Particulars: test compound 1×10^−6 M. The essentials: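 Competition radioligand binding at human D2, D3 and D4.4 receptors, detected by scintillation counting; nonspecific binding defined with excess unlabelled ligand. Results as percent inhibition of control specific binding; IC50 by Hill-equation nonlinear regression; Ki via Cheng-Prusoff, with radioligand KD from Scatchard plot.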

The target in a further assay is T1, 5-HT7 receptor (Homo sapiens, UniProt P34969).
T1 construct: purchased PerkinElmer
Nature of the assay: Radioligand binding assay, serotoninergic 5-HT7 receptors.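 Also: test compound at 1 µM.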 Particulars: binding assay result in %, Table 5a. The gist of the method: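 Competition binding at human 5-HT7 receptors with a radioligand, detected by scintillation counting; non-specific binding was defined with excess unlabelled ligand. IC50 came from Hill-equation fits of competition curves, and Ki from Cheng–Prusoff using radioligand concentration and Scatchard-derived KD.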

In assay [2] the target is T2, 5-HT1A receptor (rat hippocampus) (Rattus norvegicus, UniProt P19327).
T2 construct: hippocampus; from tissue; host or cells: rat hippocampus
T2 sequence (P19327 1-422): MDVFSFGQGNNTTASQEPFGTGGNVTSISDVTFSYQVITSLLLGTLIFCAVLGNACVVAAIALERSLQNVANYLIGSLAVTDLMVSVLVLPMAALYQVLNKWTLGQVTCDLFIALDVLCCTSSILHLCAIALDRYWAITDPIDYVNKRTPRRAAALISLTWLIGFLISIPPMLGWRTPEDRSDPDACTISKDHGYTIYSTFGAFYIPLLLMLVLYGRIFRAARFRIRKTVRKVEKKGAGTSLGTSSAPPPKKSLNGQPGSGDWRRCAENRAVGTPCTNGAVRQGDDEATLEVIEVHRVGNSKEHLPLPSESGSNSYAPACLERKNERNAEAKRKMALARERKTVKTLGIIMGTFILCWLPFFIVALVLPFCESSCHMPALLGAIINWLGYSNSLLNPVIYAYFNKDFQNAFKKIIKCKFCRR
Nature of the assay: Radioligand binding assay, serotoninergic 5-HT1A receptors.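 Also: test compound at 1 µM.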 Particulars: binding assay result in %, Table 5a.

In assay [3] the test system is α1 adrenergic receptors (rat cerebral cortex). Nature of the assay: Radioligand binding assay, adrenergic α1 receptors. Particulars: test compound 1×10^−6 M. The gist of the method:
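Values derive from radioligand displacement, with non-specific binding defined by excess cold ligand and detection by scintillation. Hill-fit IC50s were converted to Ki via Cheng-Prusoff using Scatchard-derived Kd; percent inhibition of control specific binding also reported.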

For the next assay, the target named is T3, 5-HT6 receptor (Homo sapiens, UniProt P50406).
T3 construct: purchased PerkinElmer
Kind of assay: Radioligand binding assay, serotoninergic 5-HT6 receptors.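 Also: test compound at 1 µM.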 Particulars: binding assay result in %, Table 5a. The gist of the method: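 Values are Ki from Cheng–Prusoff, taking IC50 from Hill nonlinear regression of competition curves and KD from a Scatchard plot. Specific binding was total minus binding with excess unlabelled ligand. Radioligand displacement was detected by scintillation counting, and data were also reported as percent of control specific binding.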

For assay [4], the target named is dopaminergic receptors D2 (Homo sapiens, UniProt P14416). Nature of the assay: Radioligand binding assay, dopaminergic D2 receptors. Particulars: binding assay, test compound 1×10^−6 M. The gist of the method:
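Total binding is counted by scintillation and non-specific binding subtracted using an excess of unlabelled ligand. IC50 comes from a Hill-equation fit with slope factor; Ki follows Cheng–Prusoff.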

A further assay deals with T4, 5-HT2A receptor (Homo sapiens, UniProt P28223).
T4 construct: purchased PerkinElmer
Kind of assay: Radioligand binding assay, serotoninergic 5-HT2A receptors. Particulars: binding assay result in %, Table 5a. The gist of the method: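 Radioligand competition binding with scintillation counting; nonspecific binding defined by excess unlabelled ligand. Data as percent inhibition of control specific binding. IC50 by Hill-equation fit of competition curves; Ki by Cheng-Prusoff, with radioligand Kd from Scatchard plot.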

In assay [5] the target is T5, serotonin transporter (SERT) (Homo sapiens, UniProt P31645).
T5 construct: expressed in transfected cells; host or cells: CHO cells
Kind of assay: Radioligand binding assay, serotonin transporter (SERT). Particulars: binding assay, test compound 1×10^−6 M. The essentials:
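Radioligand competition binding with scintillation detection; specific binding is total minus binding under excess unlabelled ligand. Reported as % of control specific binding or % inhibition; IC50 from Hill-equation non-linear regression of competition curves, and Ki via Cheng-Prusoff using radioligand concentration and Scatchard-derived KD.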

T1 sequence (P34969 whole entry): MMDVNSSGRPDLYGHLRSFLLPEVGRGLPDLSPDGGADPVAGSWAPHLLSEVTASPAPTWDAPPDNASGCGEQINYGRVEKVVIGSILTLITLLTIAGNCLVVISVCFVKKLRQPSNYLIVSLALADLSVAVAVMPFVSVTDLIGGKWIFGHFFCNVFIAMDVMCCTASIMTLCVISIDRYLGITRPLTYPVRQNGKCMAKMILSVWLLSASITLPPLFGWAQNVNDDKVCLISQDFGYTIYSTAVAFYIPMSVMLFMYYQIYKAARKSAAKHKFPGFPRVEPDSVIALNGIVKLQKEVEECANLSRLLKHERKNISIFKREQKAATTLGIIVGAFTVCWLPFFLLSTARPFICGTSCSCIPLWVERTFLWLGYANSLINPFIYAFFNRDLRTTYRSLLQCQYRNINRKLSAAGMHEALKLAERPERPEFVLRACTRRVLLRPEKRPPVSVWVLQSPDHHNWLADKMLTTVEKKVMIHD
Chain of dopaminergic receptors D2 (P14416 whole entry): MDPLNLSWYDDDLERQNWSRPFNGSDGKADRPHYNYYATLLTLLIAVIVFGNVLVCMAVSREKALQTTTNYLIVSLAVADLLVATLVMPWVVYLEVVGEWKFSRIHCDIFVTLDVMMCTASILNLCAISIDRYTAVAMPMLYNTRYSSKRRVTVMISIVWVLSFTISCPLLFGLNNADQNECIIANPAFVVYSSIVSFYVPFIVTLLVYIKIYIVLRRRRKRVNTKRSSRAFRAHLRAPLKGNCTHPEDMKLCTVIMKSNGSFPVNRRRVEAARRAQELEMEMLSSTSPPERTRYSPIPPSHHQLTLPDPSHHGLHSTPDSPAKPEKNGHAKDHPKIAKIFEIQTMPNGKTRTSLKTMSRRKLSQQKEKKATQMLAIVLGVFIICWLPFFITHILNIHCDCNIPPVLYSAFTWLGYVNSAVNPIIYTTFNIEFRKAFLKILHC
T5 sequence (P31645 whole entry): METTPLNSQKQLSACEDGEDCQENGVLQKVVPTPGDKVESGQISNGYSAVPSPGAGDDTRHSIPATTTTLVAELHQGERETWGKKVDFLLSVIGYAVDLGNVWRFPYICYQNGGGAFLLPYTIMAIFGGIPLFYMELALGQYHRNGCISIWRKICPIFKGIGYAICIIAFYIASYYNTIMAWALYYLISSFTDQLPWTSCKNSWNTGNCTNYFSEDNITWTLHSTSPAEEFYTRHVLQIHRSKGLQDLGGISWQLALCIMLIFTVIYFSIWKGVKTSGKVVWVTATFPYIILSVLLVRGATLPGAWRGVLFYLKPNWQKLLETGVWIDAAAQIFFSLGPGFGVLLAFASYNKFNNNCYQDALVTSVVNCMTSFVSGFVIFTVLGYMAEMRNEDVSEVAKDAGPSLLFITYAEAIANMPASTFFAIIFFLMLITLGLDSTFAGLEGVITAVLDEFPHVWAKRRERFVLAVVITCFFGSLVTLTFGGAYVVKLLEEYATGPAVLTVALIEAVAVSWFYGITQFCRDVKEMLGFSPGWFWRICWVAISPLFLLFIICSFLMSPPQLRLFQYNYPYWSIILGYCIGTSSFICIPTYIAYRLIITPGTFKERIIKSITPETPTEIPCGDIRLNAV
Chain of dopaminergic receptors D3 (P35462 whole entry): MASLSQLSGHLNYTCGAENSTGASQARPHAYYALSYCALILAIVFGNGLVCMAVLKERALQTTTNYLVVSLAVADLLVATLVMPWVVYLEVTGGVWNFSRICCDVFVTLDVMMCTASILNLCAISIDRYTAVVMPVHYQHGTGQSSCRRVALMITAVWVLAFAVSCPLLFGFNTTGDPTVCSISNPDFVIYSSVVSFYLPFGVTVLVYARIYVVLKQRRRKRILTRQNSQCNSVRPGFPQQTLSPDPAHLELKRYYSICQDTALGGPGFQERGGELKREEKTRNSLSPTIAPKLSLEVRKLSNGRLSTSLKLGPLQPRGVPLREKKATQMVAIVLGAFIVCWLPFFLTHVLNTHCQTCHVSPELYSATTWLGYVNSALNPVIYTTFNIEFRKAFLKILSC
T3 sequence (P50406 whole entry): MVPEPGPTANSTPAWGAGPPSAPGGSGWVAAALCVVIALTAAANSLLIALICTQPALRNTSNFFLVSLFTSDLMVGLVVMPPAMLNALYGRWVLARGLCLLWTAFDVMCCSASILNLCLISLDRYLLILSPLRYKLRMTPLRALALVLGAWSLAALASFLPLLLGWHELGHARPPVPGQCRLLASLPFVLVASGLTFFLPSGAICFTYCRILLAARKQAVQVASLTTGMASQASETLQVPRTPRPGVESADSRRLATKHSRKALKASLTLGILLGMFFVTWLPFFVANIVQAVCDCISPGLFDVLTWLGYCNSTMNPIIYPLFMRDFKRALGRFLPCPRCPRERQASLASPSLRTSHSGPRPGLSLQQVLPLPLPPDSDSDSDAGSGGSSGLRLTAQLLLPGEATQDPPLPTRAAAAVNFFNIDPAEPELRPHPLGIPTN
T4 sequence (P28223 whole entry): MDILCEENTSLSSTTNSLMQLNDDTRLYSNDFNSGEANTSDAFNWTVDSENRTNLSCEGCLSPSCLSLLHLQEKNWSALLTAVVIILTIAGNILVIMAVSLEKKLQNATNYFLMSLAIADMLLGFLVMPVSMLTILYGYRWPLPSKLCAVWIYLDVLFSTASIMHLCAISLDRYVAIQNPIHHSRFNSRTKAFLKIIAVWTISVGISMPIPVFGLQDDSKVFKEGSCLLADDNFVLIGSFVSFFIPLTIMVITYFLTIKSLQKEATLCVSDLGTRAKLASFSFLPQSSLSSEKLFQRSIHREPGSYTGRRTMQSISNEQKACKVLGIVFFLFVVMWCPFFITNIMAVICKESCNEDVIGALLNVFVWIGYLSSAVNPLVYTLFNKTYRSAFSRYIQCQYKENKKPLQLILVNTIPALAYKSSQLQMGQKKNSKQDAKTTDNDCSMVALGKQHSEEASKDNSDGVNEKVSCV

For the molecule `O=S(=O)(NCC1CN(CCOc2cccc3c2OCCO3)C1)c1ccc2ccccc2c1` [Compound 177, N-[[1-[2-(2,3-Dihydro-1,4-benzodioxin-5-yloxy)ethyl]azetidin-3-yl]methyl]-naphthalene-2-sulphonamide], the inhibition at 1 µM worked out at 42% in assay [1]; 88% at 5-HT7 receptor; 97% in assay [2]; 44% at 5-HT6 receptor; 13% in assay [4]; 66% on 5-HT2A receptor. In assay [5], the inhibition at 1 µM is 25%. Further, in assay [3], the “α1 [%]” value is on record as 55%.
For the molecule `O=S(=O)(NCC1CN(CCOc2cccc3c2OCCO3)C1)c1csc2ccccc12` [Compound 190, N-[[1-[2-(2,3-Dihydro-1,4-benzodioxin-5-yloxy)ethyl]azetidin-3-yl]methyl]-benzothiophene-3-sulphonamide], the inhibition at 1 µM in assay [1] was determined as 62%; at 5-HT7 receptor, 97%; in assay [2], 100%; on 5-HT6 receptor it was 34%; in assay [4], 51%; on 5-HT2A receptor, 68%. In addition, the inhibition at 1 µM in assay [5] was found to be 31%. For the same molecule, the “α1 [%]” value in assay [3] is 86%.
Consider `Cc1c(S(=O)(=O)NCC2CCN(CCOc3cccc4ccccc34)C2)sc2ccc(Cl)cc12` (centres unmarked) [Compound 272, 5-Chloro-3-methyl-N-[[1-[2-(1-naphthyloxy)ethyl]pyrrolidin-3-yl]methyl]benzothiophene-2-sulphonamide], for which the inhibition at 1 µM in assay [1] was 88%; on 5-HT7 receptor, 88%; in assay [2], 63%; on 5-HT6 receptor, 67%; in assay [4], 40%; on 5-HT2A receptor, 82%. In addition, the inhibition at 1 µM in assay [5] is 20%. In assay [3], the “α1 [%]” value is listed as −7%.
On to `O=S(=O)(NC1CCN(CCOc2cccc3ccccc23)CC1)c1ccc2ccccc2c1` [Compound 120, N-[1-[2-(1-Naphthyloxy)ethyl]-4-piperidine]naphthalene-2-sulphonamide], for which the “D3 [%]” value in assay [1] was 30%. Moreover, the “5-HT7 [%]” value on 5-HT7 receptor is given as 89%. In assay [2], the “5-HT1A [%]” value came to 8%. In addition, the “α1 [%]” value in assay [3] is on record as −9%. The “5-HT6 [%]” value at 5-HT6 receptor was 24%. Besides, the “D2 [%]” value in assay [4] is −33%. The “5-HT2A [%]” value at 5-HT2A receptor was 68%. In assay [5], the “SERT [%]” value stood at 21%.
`CC1(C)Cc2cccc(OCCN3CCC(CNS(=O)(=O)c4cccc(O)c4)C3)c2O1` (centres unmarked) [Compound 113, N-[[1-[2-[(2,2-Dimethyl-3H-benzofuran-7-yl)oxy]ethyl]pyrrolidin-3-yl]methyl]-3-hydroxy-benzenesulphonamide]: the inhibition at 1 µM is 55% in assay [1]; 85% at 5-HT7 receptor; 81% in assay [2]; 52% on 5-HT6 receptor; 47% in assay [4]; 65% on 5-HT2A receptor. Further, in assay [5], the inhibition at 1 µM came to 18%. Moreover, the “α1 [%]” value in assay [3] was found to be 55%.
Turning to `O=S(=O)(NC1CCN(CCOc2cccc3ccccc23)CC1)c1cccc(O)c1` [Compound 119, 3-Hydroxy-N-[1-[2-(1-naphthyloxy)ethyl]-4-piperidine]benzene-sulphonamide], the “D3 [%]” value in assay [1] came to 93%. Also, the “5-HT7 [%]” value at 5-HT7 receptor was 85%. Also, the “5-HT1A [%]” value in assay [2] was determined as 89%. Also, the “α1 [%]” value in assay [3] is 78%. On 5-HT6 receptor, the “5-HT6 [%]” value is given as 57%. In assay [4], the “D2 [%]” value is 79%. In addition, at 5-HT2A receptor, the “5-HT2A [%]” value is listed as 69%. In assay [5], the “SERT [%]” value came out at 10%.
`O=S(=O)(NCC1CCN(CCOc2nsc3ccccc23)C1)c1ccc2ccccc2c1` (centres unmarked) [Compound 44, N-[[1-[2-(1,2-Benzothiazol-3-yloxy)ethyl]pyrrolidin-3-yl]methyl]naphthalene-2-sulphonamide]: the inhibition at 1 µM in assay [1] stood at 52%; on 5-HT7 receptor, 68%; in assay [2] it was 62%; on 5-HT6 receptor it was 81%; in assay [4], 76%; on 5-HT2A receptor it was 78%. Further, in assay [5], the inhibition at 1 µM came out at 25%. Moreover, the “α1 [%]” value in assay [3] is 46%.
For `O=S(=O)(NCC1CCN(CCOc2cccc3[nH]ccc23)CC1)c1ccc2ccccc2c1` [Compound 67, N-[[1-[2-(1H-Indol-4-yloxy)ethyl]-4-piperidine]methyl]naphthalene-2-sulphonamide], the “D3 [%]” value in assay [1] amounted to 94%. Besides, the “5-HT7 [%]” value on 5-HT7 receptor is 79%. Also, in assay [2], the “5-HT1A [%]” value was determined as 76%. In addition, the “α1 [%]” value in assay [3] was 91%. Moreover, the “5-HT6 [%]” value on 5-HT6 receptor came to 87%. Further, the “D2 [%]” value in assay [4] is given as 57%. Besides, the “5-HT2A [%]” value on 5-HT2A receptor came to 80%. The “SERT [%]” value in assay [5] is reported as 38%.
As for `O=S(=O)(NCC1CN(CCOc2cccc3c2OCCO3)C1)c1ccc2cc(Cl)ccc2c1` [Compound 174, 6-Chloro-N-[[1-[2-(2,3-dihydro-1,4-benzodioxin-5-yloxy)ethyl]azetidin-3-yl]methyl]naphthalene-2-sulphonamide], the inhibition at 1 µM in assay [1] was found to be 22%; at 5-HT7 receptor it was 90%; in assay [2], 91%; at 5-HT6 receptor, 64%; in assay [4], 25%; at 5-HT2A receptor it was 44%. Besides, the inhibition at 1 µM in assay [5] is 20%. Further, the “α1 [%]” value in assay [3] came out at 15%.
With `O=S(=O)(NCC1CCN(CCOc2cccc3ccccc23)C1)c1ccc(F)c(F)c1` (centres unmarked) [Compound 278, 3,4-Difluoro-N-[[1-[2-(1-naphthyloxy)ethyl]pyrrolidin-3-yl]methyl]benzenesulphonamide], the inhibition at 1 µM in assay [1] was determined as 94%; on 5-HT7 receptor, 102%; in assay [2] it was 84%; on 5-HT6 receptor, 85%; in assay [4], 31%; on 5-HT2A receptor it was 91%. Also, in assay [5], the inhibition at 1 µM was 91%. In addition, in assay [3], the “α1 [%]” value is 37%.
With `Cc1cccc(S(=O)(=O)NCC2CCN(CCCc3noc4cc(F)ccc34)CC2)c1` [Compound 36, N-[[1-[3-(6-Fluoro-1,2-benzoxazol-3-yl)propyl]-4-piperidine]methyl]-3-methylbenzenesulphonamide], the “D3 [%]” value in assay [1] was found to be 38%. Also, on 5-HT7 receptor, the “5-HT7 [%]” value came out at 88%. Besides, in assay [2], the “5-HT1A [%]” value came to 18%. In addition, the “α1 [%]” value in assay [3] turned out to be 103%. Moreover, at 5-HT6 receptor, the “5-HT6 [%]” value is given as 75%. In addition, the “D2 [%]” value in assay [4] was determined as 57%. The “5-HT2A [%]” value at 5-HT2A receptor was found to be 59%. The “SERT [%]” value in assay [5] is given as 0%.
Take `O=S(=O)(NCC1CN(CCOc2cccc3c2OCCO3)C1)c1ccc(C(F)(F)F)cc1` [Compound 180, N-[[1-[2-(2,3-Dihydro-1,4-benzodioxin-5-yloxy)ethyl]azetidin-3-yl]methyl]-4-(trifluoromethyl)benzenesulphonamide]: the inhibition at 1 µM in assay [1] worked out at 46%; on 5-HT7 receptor, 94%; in assay [2], 93%; at 5-HT6 receptor, 31%; in assay [4], 23%; at 5-HT2A receptor, 68%. Further, the inhibition at 1 µM in assay [5] turned out to be 14%. Moreover, the “α1 [%]” value in assay [3] was determined as 39%.
Turning to `O=S(=O)(NC1CCN(CCCc2noc3cc(F)ccc23)CC1)c1ccc2ccccc2c1` [Compound 35, N-[1-[3-(6-Fluoro-1,2-benzoxazol-3-yl)propyl]-4-piperidine]-naphthalene-2-sulphonamide], in assay [1], the “D3 [%]” value was determined as 56%. Besides, the “5-HT7 [%]” value at 5-HT7 receptor came out at 98%. Besides, the “5-HT1A [%]” value in assay [2] worked out at 28%. For the same molecule, the “α1 [%]” value in assay [3] is listed as 99%. Further, at 5-HT6 receptor, the “5-HT6 [%]” value worked out at 97%. Moreover, the “D2 [%]” value in assay [4] was found to be 77%. In addition, at 5-HT2A receptor, the “5-HT2A [%]” value amounted to 91%. For the same molecule, the “SERT [%]” value in assay [5] turned out to be 29%.

These data come from patent US20140135310A1, “SULPHONAMIDE DERIVATIVES OF ALICYCLIC AMINES FOR THE TREATMENT OF CENTRAL NERVOUS SYSTEM DISEASES” (Adamed Sp. z o.o., priority 2011, published 2014).
